Experimental data from patent publication US6337346B1 (University of North Carolina at Chapel Hill, priority 1998, dated 2002).
In brackets after ≈: the same amount, converted by molar mass. Like-named read-outs stand apart in the source and are kept apart here.

How the values were obtained:
KB cells = details: cited from earlier work; for ED50: KB cells, background, numbering of Examples 1-13
SK-MEL-2 = assay: NCI in vitro disease-oriented tumor cells screen; assay type: cell-based, human; details: Melanoma SK-MEL-2, Table 2, average of at least two testings; for GI50: Homo sapiens, read-out: Cytotoxicity log GI50 (converted)
From the text: (§1) (Activity is defined as log GI50<−4 where GI50 is the molar concentration causing 50% cell growth inhibition).

MDA-MB-435 = assay: NCI in vitro disease-oriented tumor cells screen; assay type: cell-based, human; details: Breast Cancer MDA-MB-435, Table 2 (numbering of Examples 1-13), average of at least two testings; for GI50: Homo sapiens, read-out: Cytotoxicity log GI50 (converted)
From the text: as §1

LOX IMVI = assay: NCI in vitro disease-oriented tumor cells screen; assay type: cell-based, human; details: Melanoma LOX IMVI, Table 2 (numbering of Examples 1-13), average of at least two testings; for GI50: Homo sapiens, read-out: Cytotoxicity log GI50 (converted)
From the text: as §1

NCI-H23 = assay: NCI in vitro disease-oriented tumor cells screen; assay type: cell-based, human; details: Non-Small Cell Lung Cancer NCI-H23, Table 2 (numbering of Examples 1-13), average of at least two testings; for GI50: Homo sapiens, read-out: Cytotoxicity log GI50 (converted)
From the text: as §1

OVCAR-8 = assay: NCI in vitro disease-oriented tumor cells screen; assay type: cell-based, human; details: Ovarian Cancer OVCAR-8, Table 2, average of at least two testings; for GI50: Homo sapiens, read-out: Cytotoxicity log GI50 (converted)
From the text: as §1

MDA-N = assay: NCI in vitro disease-oriented tumor cells screen; assay type: cell-based, human; details: Breast Cancer MDA-N, Table 2 (numbering of Examples 1-13), average of at least two testings; for GI50: Homo sapiens, read-out: Cytotoxicity log GI50 (converted)
From the text: as §1

M14 = assay: NCI in vitro disease-oriented tumor cells screen; assay type: cell-based, human; details: Melanoma M14, Table 2, average of at least two testings; for GI50: Homo sapiens, read-out: Cytotoxicity log GI50 (converted)
From the text: as §1

SK-MEL-28 = assay: NCI in vitro disease-oriented tumor cells screen; assay type: cell-based, human; details: Melanoma SK-MEL-28, Table 2, average of at least two testings; for GI50: Homo sapiens, read-out: Cytotoxicity log GI50 (converted)
From the text: as §1

SK-MEL-5 = assay: NCI in vitro disease-oriented tumor cells screen; assay type: cell-based, human; details: Melanoma SK-MEL-5, Table 2 (numbering of Examples 1-13), average of at least two testings; for GI50: Homo sapiens, read-out: Cytotoxicity log GI50 (converted)
From the text: as §1

human tumor cell lines [1] = assay: NCI in vitro screen, mean over all cell lines tested; details: for GI50: Homo sapiens, read-out: Cytotoxicity log GI50, Mean Value (converted); for Cytotoxicity log GI50, Mean Value: Mean value over all cell lines tested (58 human tumor cell lines), Table 2 (numbering of Examples 1-13)
From the text: as §1

NCI-H522 = assay: NCI in vitro disease-oriented tumor cells screen; assay type: cell-based, human; details: Non-Small Cell Lung Cancer NCI-H522, Table 2, average of at least two testings; for GI50: Homo sapiens, read-out: Cytotoxicity log GI50 (converted)
From the text: as §1

UACC-62 = assay: NCI in vitro disease-oriented tumor cells screen; assay type: cell-based, human; details: Melanoma UACC-62, Table 2, average of at least two testings; for GI50: Homo sapiens, read-out: Cytotoxicity log GI50 (converted)
From the text: as §1

OVCAR-3 = assay: NCI in vitro disease-oriented tumor cells screen; assay type: cell-based, human; details: Ovarian Cancer OVCAR-3, Table 2 (numbering of Examples 1-13), average of at least two testings; for GI50: Homo sapiens, read-out: Cytotoxicity log GI50 (converted)
From the text: as §1

UACC-257 = assay: NCI in vitro disease-oriented tumor cells screen; assay type: cell-based, human; details: Melanoma UACC-257, Table 2, average of at least two testings; for GI50: Homo sapiens, read-out: Cytotoxicity log GI50 (converted)
From the text: as §1

BT-549 = assay: NCI in vitro disease-oriented tumor cells screen; assay type: cell-based, human; details: Breast Cancer BT-549, Table 2, average of at least two testings; for GI50: Homo sapiens, read-out: Cytotoxicity log GI50 (converted)
From the text: as §1

MALME-3M = assay: NCI in vitro disease-oriented tumor cells screen; assay type: cell-based, human; details: Melanoma MALME-3M, Table 2, average of at least two testings; for GI50: Homo sapiens, read-out: Cytotoxicity log GI50 (converted)
From the text: as §1

HS 578T = assay: NCI in vitro disease-oriented tumor cells screen; assay type: cell-based, human; details: Breast Cancer HS 578T, Table 2, average of at least two testings; for GI50: Homo sapiens, read-out: Cytotoxicity log GI50 (converted)
From the text: as §1

human tumor cell lines [2] = test system: human tumor cell lines
From the text: as §1

HL-60(TB) = assay: NCI in vitro disease-oriented tumor cells screen; assay type: cell-based, human; details: Leukemia HL-60(TB), Table 2, average of at least two testings; for GI50: Homo sapiens, read-out: Cytotoxicity log GI50 (converted)
From the text: as §1

| Compound | GI50 (SK-MEL-2) | GI50 (MDA-MB-435) | GI50 (LOX IMVI) | GI50 (NCI-H23) | GI50 (OVCAR-8) | GI50 (MDA-N) | GI50 (M14) | GI50 (SK-MEL-28) | GI50 (SK-MEL-5) | GI50 (human tumor cell lines [1]) | GI50 (NCI-H522) | GI50 (UACC-62) | GI50 (OVCAR-3) | GI50 (UACC-257) | GI50 (BT-549) | GI50 (MALME-3M) | GI50 (HS 578T) | GI50 (HL-60(TB)) | overall cytotoxicity / potency (in words) (human tumor cell lines [2]) | other results |
| --- | --- | --- | --- | --- | --- | --- | --- | --- | --- | --- | --- | --- | --- | --- | --- | --- | --- | --- | --- | --- |
| O=C1c2c(O)ccc(O)c2C(=O)c2c(NCCNCCO)ccc(NCCNCCO)c21 [Compound 1, mitoxantrone] |  |  |  |  |  |  |  |  |  |  |  |  |  |  |  |  |  |  |  | ED50 (KB cells): 1.0 µg/mL (≈ 2.25 µM) |
| CC(=O)c1cc2c(o1)C(=O)c1ccccc1C2=O [Compound 2, 2-acetyl-4H, 9H-naphtho[2,3-b]furan-4,9-dione] |  |  |  |  |  |  |  |  |  |  |  |  |  |  |  |  |  |  |  | EC50 (KB cells; KB cell culture assay, numbering of Examples 14-16, read-out: ED50 (the source's name)): 4200 nM; ED50 (KB cells): 2.0 µg/mL (≈ 8.33 µM) |
| O=C1c2ccccc2C(=O)c2sccc21 [Compound 4, naphtho[2,3-b]thiophene-4,9-dione] |  |  |  |  |  |  |  |  |  |  |  |  |  |  |  |  |  |  |  | ED50 (KB cells): 1.4 µg/mL (≈ 6.53 µM) |
| CC(=O)OC(C)c1cc2c(s1)C(=O)c1ccsc1C2=O (stereo not drawn) [Compound 11, 2-(1′-Acetoxyethyl)-4,8-dihydrobenzo[1,2-b:4,5-b′]dithiophene-4,8-dione] | 26.3 nM | < 10 nM | < 10 nM | 11.2 nM | 36.3 nM | < 10 nM | 12.9 nM | 19.1 nM | 13.5 nM | 39.8 nM | 148 nM | 17 nM | < 10 nM | 25.1 nM | 45.7 nM | < 10 nM | 155 nM | < 10 nM |  | Cytotoxicity log GI50, Mean Value (human tumor cell lines [2]; human): −7.40 M |
| CC(=O)c1cc2c(s1)C(=O)c1c(C(C)=O)csc1C2=O [Compound 13, 2,7-Diacetyl-4,8-dihydrobenzo[1,2-b:4,5-b′]dithiophene-4,8-dione] | 1740 nM | 178 nM | 1050 nM | 1320 nM | 1450 nM | 174 nM | 1510 nM | 1780 nM | 1200 nM | 1170 nM | 525 nM | 1950 nM | 229 nM | 562 nM | 1740 nM | 1320 nM | 2400 nM | 52.5 nM | less active in all cell lines |  |
| CC(O)c1cc2c(s1)C(=O)c1c(C(C)O)csc1C2=O (stereo not drawn) [Compound 14, 2,7-Bis(1′-hydroxyethyl)-4,8-dihydrobenzo [1,2-b:4,5-b′]dithiophene-4,8-dione] | 112 nM | 17.8 nM | 55 nM | 33.9 nM | 219 nM | 20.9 nM | 57.5 nM | 186 nM | 12.6 nM | 148 nM | 302 nM | 32.4 nM | 11.7 nM | 61.7 nM | 162 nM | 27.5 nM | 316 nM | 11.2 nM | overall cytotoxicity comparable to the monosubstituted compounds |  |
| CC(=O)c1cc2c(s1)C(=O)c1sccc1C2=O [Compound 19, 2-Acetyl-4,8-dihydrobenzo[1,2-b:5,4-b′]dithiophene-4,8-dione] | 33.1 nM | < 10 nM | < 10 nM | 18.2 nM | 30.9 nM | < 10 nM | 17.4 nM | < 10 nM | < 10 nM | 46.8 nM | 17.4 nM | 17 nM | < 10 nM | 13.8 nM | 17.8 nM | 16.2 nM | 36.3 nM |  |  |  |
| CC(O)c1cc2c(s1)C(=O)c1sccc1C2=O (stereo not drawn) [Compound 20, 2-(1′-Hydroxyethyl)-4,8-dihydrobenzo[1,2-b:5,4-b′]dithiophene-4,8-dione] | 30.9 nM | 16.2 nM | 24 nM | 15.5 nM | 162 nM | 18.6 nM | 14.8 nM | 38.9 nM | 13.5 nM | 135 nM | 123 nM | 22.4 nM | 117 nM | 18.2 nM | 34.7 nM | 19.1 nM | 57.5 nM | 69.2 nM | excellent overall cytotoxicity | melting point: 170 to 172 °C |
| CC(=O)OC(C)c1cc2c(s1)C(=O)c1sccc1C2=O (stereo not drawn) [Compound 21, 2-(1′-Acetoxyethyl)-4,8-dihydrobenzo[1,2-b:5,4-b′]dithiophene-4,8-dione] | 417 nM | 182 nM | 209 nM | 219 nM | 1410 nM | 19.1 nM | 162 nM | 646 nM | 107 nM | 794 nM | 871 nM | 1380 nM | 490 nM | 214 nM | 282 nM | 120 nM | 513 nM | 1740 nM | among the least active | melting point: 165 to 166 °C |
| CC(=O)c1cc2c(s1)C(=O)c1sc(C(C)=O)cc1C2=O [Compound 23] |  |  |  |  |  |  |  |  |  |  |  |  |  |  |  |  |  |  |  | Cytotoxicity log GI50 (SK-MEL-2): −6.79 M; Cytotoxicity log GI50 (MDA-MB-435): −6.64 M; Cytotoxicity log GI50 (LOX IMVI): −7.65 M; Cytotoxicity log GI50 (NCI-H23): −6.54 M; Cytotoxicity log GI50 (OVCAR-8): −6.64 M; Cytotoxicity log GI50 (MDA-N): −6.71 M; Cytotoxicity log GI50 (M14): −6.36 M; Cytotoxicity log GI50 (SK-MEL-28): −6.69 M; Cytotoxicity log GI50 (SK-MEL-5): −6.50 M; Cytotoxicity log GI50, Mean Value (human tumor cell lines [1]): −6.47 M; Cytotoxicity log GI50 (NCI-H522): −6.42 M; Cytotoxicity log GI50 (UACC-62): −6.63 M; Cytotoxicity log GI50 (OVCAR-3): −7.53 M; Cytotoxicity log GI50 (UACC-257): −6.78 M; Cytotoxicity log GI50 (BT-549): −6.04 M; Cytotoxicity log GI50 (MALME-3M): −6.65 M; Cytotoxicity log GI50 (HS 578T): −6.55 M |
| CC(O)c1cc2c(s1)C(=O)c1sc(C(C)O)cc1C2=O (stereo not drawn) [Compound 24] |  |  |  |  |  |  |  |  |  |  |  |  |  |  |  |  |  |  |  | Cytotoxicity log GI50 (SK-MEL-2): −6.69 M; Cytotoxicity log GI50 (MDA-MB-435): −6.80 M; Cytotoxicity log GI50 (LOX IMVI): −6.92 M; Cytotoxicity log GI50 (NCI-H23): −6.72 M; Cytotoxicity log GI50 (OVCAR-8): −6.58 M; Cytotoxicity log GI50 (MDA-N): −6.83 M; Cytotoxicity log GI50 (M14): −6.81 M; Cytotoxicity log GI50 (SK-MEL-28): −6.63 M; Cytotoxicity log GI50 (SK-MEL-5): −6.85 M; Cytotoxicity log GI50, Mean Value (human tumor cell lines [1]): −6.32 M; Cytotoxicity log GI50 (NCI-H522): −6.40 M; Cytotoxicity log GI50 (UACC-62): −6.61 M; Cytotoxicity log GI50 (OVCAR-3): −6.44 M; Cytotoxicity log GI50 (UACC-257): −6.79 M; Cytotoxicity log GI50 (BT-549): −6.71 M; Cytotoxicity log GI50 (MALME-3M): −6.82 M; Cytotoxicity log GI50 (HS 578T): −6.50 M; Cytotoxicity log GI50 (HL-60(TB)): −6.36 M |
